Laboratory results published in patent EP0107907A2, “Improvements in or relating to immunomodulating agents” (ELI LILLY AND COMPANY, priority 1982, dated 1984).

Assays:
Electrometric titration = type: physicochemical; conditions: 66% aqueous dimethylformamide; the glycyl amino group
murine macrophages = assay: In vitro activation of murine macrophages (macrophage-mediated tumor cytotoxicity against P815 cells); type: cell-based; conditions: 48 hours
Description: In one procedure, the ability of the compounds to activate murine macrophages in vitro was determined. Peritoneal macrophages were exposed to a compound of formula 1, 2, or 3 simultaneously with the addition of target cells. Tumor cytotoxicity of these treated macrophages was determined 48 hours later by trypan blue enumeration. The percentage of growth inhibition of P815 cells due to composition-mediated macrophage activation was calculated by comparison to that of P815 cells grown in the.presence of macrophages exposed to buffer.

L. monocytogenes EDG = assay: Standard agar-diffusion test, antibacterial; type: cell-based
From the text: Compound 1 was negative in the Limulus Lysate Test for endotoxin and was devoid of intrinsic in vitro antibacterial activity against L. monocytogenes EDG in a standard agar-diffusion test.

C=C(CP(=O)(O)O)NC(=O)[C@H](CC(C)C)NC(=O)CN [Compound 1, N^2-glycyl-N-(1-methylene-2-phosphonoethyl)leucinamide]
pKa (Electrometric titration): 8.2 | Percent Macrophage Cytotoxicity (murine macrophages; 1.56 µg/ml, Experiment 2): 0% | Percent Macrophage Cytotoxicity (murine macrophages; 3.12 µg/ml, Experiment 1): 11% | Percent Macrophage Cytotoxicity (murine macrophages; 3.12 µg/ml, Experiment 2): 14% | Percent Macrophage Cytotoxicity (murine macrophages; 6.25 µg/ml, Experiment 1): 0% | Percent Macrophage Cytotoxicity (murine macrophages; 6.25 µg/ml, Experiment 2): 0% | Percent Macrophage Cytotoxicity (murine macrophages; 12.5 µg/ml, Experiment 1): 27% | Percent Macrophage Cytotoxicity (murine macrophages; 12.5 µg/ml, Experiment 2): 39% | Percent Macrophage Cytotoxicity (murine macrophages; 25 µg/ml, Experiment 1): 43% | Percent Macrophage Cytotoxicity (murine macrophages; 25 µg/ml, Experiment 2): 32% | Percent Macrophage Cytotoxicity (murine macrophages; 50 µg/ml, Experiment 1): 35% | Percent Macrophage Cytotoxicity (murine macrophages; 50 µg/ml, Experiment 2): 29% | Percent Macrophage Cytotoxicity (murine macrophages; 100 µg/ml, Experiment 1): 53% | intrinsic in vitro antibacterial activity (L. monocytogenes EDG): devoid
